Measured values as given in patent US20140287419A1, “Compositions Having Dicamba Decarboxylase Activity and Methods of Use” (priority 2013, published 2014).
Entries after “also recorded” stand apart in the source; their conditions may differ.

Tests used:
[1] = system: Arabidopsis ecotype Columbia (Col-O); assay: Arabidopsis root growth inhibition assay; details: 6 days
Protocol: Phytotoxicity of other major dicamba decarboxylated products was evaluated using Arabidopsis root growth inhibition assay. 4-chloro-3-methoxy phenol was purchased from Biogene Organics, Inc. (catalog number U06-642-79). 2,5-dichloro phenol was purchased from Sigma-Aldrich (catalog number D70007). Briefly, seeds of Arabidopsis ecotype Columbia (Col-O) were surface sterilized with 70% (v/v) ethanol for 5 minutes and 10% (v/v) bleach for 15 minutes. After being washed three times with distilled water, the seeds were germinated on 1× Murashige and Skoog (MS) medium with a pH of 5.7, 3% (w/v) sucrose, and 0.8% (w/v) agar. After incubation for 3.5 days, the seedlings were transferred to 1× MS medium containing B5 vitamin, 3% (w/v) sucrose, 1.2% (w/v) agar, and filter sterilized compounds was added to the media at 60° C. The concentrations of compounds including dicamba were 0 μM, 1.0 μM, and 10 μM. The seedlings were placed vertically, and the temperature maintained at 23° C. to allow root growth along the surface of the agar, with a photoperiod of 16 h of light and 8 h of dark.
After 6 days on media, root growth was evaluated. In wild type Arabidopsis, root growth inhibition is expected from auxin herbicide treatment.

[2] = system: Soybean seeds of a Pioneer elite germplasm; assay: Soybean germination phytotoxicity test; details: for soybean seed germination and growth: 16 days

SMILES	Arabidopsis root growth ([1]; 1.0 uM in MS medium)	Arabidopsis root growth ([1]; 10 uM in MS medium)	soybean seed germination and growth ([2]; 1 μM in germination media)	soybean seed germination and growth ([2]; 10 μM in germination media)	soybean seed germination and growth ([2]; 100 μM in germination media)	soybean germination ([2]; FIG. 2 legend, no concentration given)
Oc1cc(Cl)ccc1Cl [2,5-dichloro phenol]	not affected; also recorded: did not have any effect on the growth of Arabidopsis roots	not affected; also recorded: did not have any effect on the growth of Arabidopsis roots	–	–	–	–
COc1cc(Cl)ccc1Cl [2,5-DCA, 2,5-dichloro anisole]	–	–	seed germination and growth were normal	seed germination and growth were normal	did not have any obvious impact on soybean germination and growth	not affected
